Reference: patent US9611267B2, “Substituted tricyclic compounds as FGFR inhibitors” (Incyte Corporation, priority 2012, dated 2017)

What was measured:
Format in all cases: biochemical
FGFR1 = FGFR1 (Homo sapiens (Human), UniProt P11362); assay: FGFR enzymatic assay (FRET peptide phosphorylation), FGFR1; settings: FGFR1 enzyme 0.02 nM, ATP 210 μM
Method in brief: (§1)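 IC50 values were obtained from variable-slope sigmoidal dose-response fitting of a FRET read-out of peptide phosphorylation. The buffer, described for FGFR3, was 50 mM HEPES pH 7.5 with MgCl2, EGTA, Tween-20 and DTT.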

FGFR2 = FGFR2 (Homo sapiens (Human), UniProt P21802); assay: FGFR enzymatic assay (FRET peptide phosphorylation), FGFR2; settings: FGFR2 enzyme 0.01 nM, ATP 100 μM
Method in brief: as §1

FGFR3 = FGFR3 (Homo sapiens (Human), UniProt P22607); assay: FGFR enzymatic assay (FRET peptide phosphorylation), FGFR3; settings: FGFR3 enzyme (Millipore), ATP 140 μM
Method in brief: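 After 5-10 min pre-incubation of FGFR3 with serially diluted compound in pH 7.5 HEPES/MgCl2/EGTA/DTT buffer, the reaction proceeded 1 hr at 25° C. Phosphorylated peptide was detected by FRET, and IC50 was fitted with a variable-slope sigmoid.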

Measured: IC50

Chain of FGFR2 (P21802 22-821): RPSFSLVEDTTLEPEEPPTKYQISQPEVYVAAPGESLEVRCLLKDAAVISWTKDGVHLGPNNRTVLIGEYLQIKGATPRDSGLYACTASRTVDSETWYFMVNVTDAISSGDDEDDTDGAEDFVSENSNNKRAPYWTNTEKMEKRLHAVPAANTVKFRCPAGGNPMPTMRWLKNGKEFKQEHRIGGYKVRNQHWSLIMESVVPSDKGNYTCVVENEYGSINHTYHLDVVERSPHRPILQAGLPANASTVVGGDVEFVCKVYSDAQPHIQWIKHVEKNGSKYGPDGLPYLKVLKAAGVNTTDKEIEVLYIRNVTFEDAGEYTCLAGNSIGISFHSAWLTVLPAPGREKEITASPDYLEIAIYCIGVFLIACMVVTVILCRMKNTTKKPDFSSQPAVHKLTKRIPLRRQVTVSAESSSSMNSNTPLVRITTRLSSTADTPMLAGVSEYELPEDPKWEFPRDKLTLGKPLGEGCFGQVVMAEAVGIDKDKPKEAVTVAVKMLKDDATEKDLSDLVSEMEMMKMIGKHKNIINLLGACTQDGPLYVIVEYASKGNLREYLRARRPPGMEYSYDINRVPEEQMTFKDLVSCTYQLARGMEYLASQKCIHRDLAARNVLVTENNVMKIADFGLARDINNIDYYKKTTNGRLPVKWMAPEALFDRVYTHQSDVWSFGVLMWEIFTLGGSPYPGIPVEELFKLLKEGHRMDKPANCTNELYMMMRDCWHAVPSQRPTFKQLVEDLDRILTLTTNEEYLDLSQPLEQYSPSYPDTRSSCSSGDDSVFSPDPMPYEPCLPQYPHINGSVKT
Chain of FGFR3 (P22607 23-806): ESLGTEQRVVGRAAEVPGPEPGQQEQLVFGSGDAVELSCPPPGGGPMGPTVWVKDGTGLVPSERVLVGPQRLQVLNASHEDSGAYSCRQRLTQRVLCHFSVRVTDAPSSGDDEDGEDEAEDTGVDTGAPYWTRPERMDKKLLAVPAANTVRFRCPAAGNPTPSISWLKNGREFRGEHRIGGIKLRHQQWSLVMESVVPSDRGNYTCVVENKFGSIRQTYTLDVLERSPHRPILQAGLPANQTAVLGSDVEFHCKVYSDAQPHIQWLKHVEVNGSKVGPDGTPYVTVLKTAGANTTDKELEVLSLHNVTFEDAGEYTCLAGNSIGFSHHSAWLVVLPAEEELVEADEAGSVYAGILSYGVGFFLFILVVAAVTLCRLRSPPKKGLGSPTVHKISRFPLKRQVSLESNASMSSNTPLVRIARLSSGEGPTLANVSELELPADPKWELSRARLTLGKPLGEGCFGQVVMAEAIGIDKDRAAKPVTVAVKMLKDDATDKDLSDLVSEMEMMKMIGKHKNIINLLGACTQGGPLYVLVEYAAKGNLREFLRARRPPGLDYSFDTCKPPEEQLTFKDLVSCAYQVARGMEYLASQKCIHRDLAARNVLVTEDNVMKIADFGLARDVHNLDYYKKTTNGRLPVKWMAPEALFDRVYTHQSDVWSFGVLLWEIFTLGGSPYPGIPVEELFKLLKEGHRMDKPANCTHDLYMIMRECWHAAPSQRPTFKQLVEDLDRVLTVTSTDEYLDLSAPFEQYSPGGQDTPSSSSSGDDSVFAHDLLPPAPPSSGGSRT
Chain of FGFR1 (P11362 22-822): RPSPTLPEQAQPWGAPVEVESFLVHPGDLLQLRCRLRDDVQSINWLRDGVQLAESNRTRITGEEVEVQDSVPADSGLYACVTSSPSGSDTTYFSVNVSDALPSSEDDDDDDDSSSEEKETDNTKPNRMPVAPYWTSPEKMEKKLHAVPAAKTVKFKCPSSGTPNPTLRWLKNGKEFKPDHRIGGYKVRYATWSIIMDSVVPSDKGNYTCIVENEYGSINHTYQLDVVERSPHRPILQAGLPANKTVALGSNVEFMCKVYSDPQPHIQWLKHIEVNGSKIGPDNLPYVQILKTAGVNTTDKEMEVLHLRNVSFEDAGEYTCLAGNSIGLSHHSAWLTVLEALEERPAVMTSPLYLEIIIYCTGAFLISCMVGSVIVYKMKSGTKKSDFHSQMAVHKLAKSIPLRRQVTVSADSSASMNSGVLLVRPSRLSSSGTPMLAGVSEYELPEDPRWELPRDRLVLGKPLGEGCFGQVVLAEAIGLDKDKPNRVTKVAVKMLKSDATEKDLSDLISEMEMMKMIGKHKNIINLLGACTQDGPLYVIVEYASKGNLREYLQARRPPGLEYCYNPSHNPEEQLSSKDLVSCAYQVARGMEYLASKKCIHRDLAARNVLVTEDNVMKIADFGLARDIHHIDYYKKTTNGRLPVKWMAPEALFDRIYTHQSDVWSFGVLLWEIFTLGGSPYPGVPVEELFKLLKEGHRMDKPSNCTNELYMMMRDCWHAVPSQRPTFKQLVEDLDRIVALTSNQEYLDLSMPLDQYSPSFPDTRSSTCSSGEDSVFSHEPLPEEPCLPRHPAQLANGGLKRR

CCN1CCN(CCc2cc3c4c(cnc3[nH]2)CN(c2c(F)c(OC)cc(OC)c2F)C(=O)N4C)CC1 [Example 71, 3-(2,6-difluoro-3,5-dimethoxyphenyl)-8-[2-(4-ethylpiperazin-1-yl)ethyl]-1-methyl-1,3,4,7-tetrahydro-2H-pyrrolo[3′,2′:5,6]pyrido[4,3-d]pyrimidin-2-one]
< 100 nM: all assays above

CCN1CCN(CCCc2cc3c4c(cnc3[nH]2)CN(c2c(F)c(OC)cc(OC)c2F)C(=O)N4C)CC1 [Example 72, 3-(2,6-difluoro-3,5-dimethoxyphenyl)-8-[3-(4-ethylpiperazin-1-yl)propyl]-1-methyl-1,3,4,7-tetrahydro-2H-pyrrolo[3′,2′:5,6]pyrido[4,3-d]pyrimidin-2-one]
< 100 nM: all assays above

CCN1CCC(Cc2cc3c4c(cnc3[nH]2)CN(c2c(F)c(OC)cc(OC)c2F)C(=O)N4C)CC1 [Example 73, 3-(2,6-difluoro-3,5-dimethoxyphenyl)-8-[(1-ethylpiperidin-4-yl)methyl]-1-methyl-1,3,4,7-tetrahydro-2H-pyrrolo[3′,2′:5,6]pyrido[4,3-d]pyrimidin-2-one]
< 100 nM: all assays above

COc1cc(OC)c(F)c(N2Cc3cnc4[nH]ccc4c3N([C@@H]3CCC[C@H]3O)C2=O)c1F [Example 74, 3-(2,6-difluoro-3,5-dimethoxyphenyl)-1-[(1R,2R)-2-hydroxycyclopentyl]-1,3,4,7-tetrahydro-2H-pyrrolo[3′,2′:5,6]pyrido[4,3-d]pyrimidin-2-one]
< 100 nM: all assays above

COc1cc(OC)c(F)c(N2Cc3cnc4c(c3N([C@@H]3CCC[C@H]3O)C2=O)CC(=O)N4)c1F [Example 75, 3-(2,6-difluoro-3,5-dimethoxyphenyl)-1-[(1R,2R)-2-hydroxycyclopentyl]-3,4,7,9-tetrahydro-1H-pyrrolo[3′,2′:5,6]pyrido[4,3-d]pyrimidine-2,8-dione]
< 100 nM: all assays above

COc1cc(OC)c(F)c(N2Cc3cnc4[nH]ccc4c3N(c3cccc(F)c3F)C2=O)c1F [Example 76, 3-(2,6-difluoro-3,5-dimethoxyphenyl)-1-(2,3-difluorophenyl)-1,3,4,7-tetrahydro-2H-pyrrolo[3′,2′:5,6]pyrido[4,3-d]pyrimidin-2-one]
< 100 nM: all assays above

COc1cc(OC)c(F)c(N2Cc3cnc4[nH]ccc4c3N(Cc3ccccn3)C2=O)c1F [Example 78, 3-(2,6-difluoro-3,5-dimethoxyphenyl)-1-(pyridin-2-ylmethyl)-1,3,4,7-tetrahydro-2H-pyrrolo[3′,2′:5,6]pyrido[4,3-d]pyrimidin-2-one]
< 100 nM: all assays above

COc1cc(OC)c(F)c(N2Cc3cnc4c(c3N(Cc3ccccn3)C2=O)CC(=O)N4)c1F [Example 79, 3-(2,6-difluoro-3,5-dimethoxyphenyl)-1-(pyridin-2-ylmethyl)-3,4,7,9-tetrahydro-1H-pyrrolo[3′,2′:5,6]pyrido[4,3-d]pyrimidine-2,8-dione]
< 100 nM: all assays above

COc1cc(OC)c(F)c(N2Cc3cnc4c(c3N(c3ccc(Cl)cc3)C2=O)CC(=O)N4)c1F [Example 80, 1-(4-chlorophenyl)-3-(2,6-difluoro-3,5-dimethoxyphenyl)-3,4,7,9-tetrahydro-1H-pyrrolo[3′,2′:5,6]pyrido[4,3-d]pyrimidine-2,8-dione]
< 100 nM: all assays above
